Results on 2 molecules are retold here after article PMC11997503, “A BPTF-specific PROTAC degrader enhances NK cell-based cancer immunotherapy” (Molecular Therapy, 2025).

As usually defined, the Kd is the concentration at which binding is half-saturated. A lower Kd goes with a tighter complex.

One assay deals with T1, BRD9 (Homo sapiens, UniProt Q9H8M2).
T1 construct: bromodomain
T1 sequence (Q9H8M2 134-240 limits assumed): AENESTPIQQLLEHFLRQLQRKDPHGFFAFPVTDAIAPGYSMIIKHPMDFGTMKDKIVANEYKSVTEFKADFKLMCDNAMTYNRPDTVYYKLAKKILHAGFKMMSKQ
Put plainly: SPR (Biacore T200, NiHC1500M chip). It counts as binding. A general note: Surface plasmon resonance follows binding to a sensor surface in real time, without labels.

In a further assay the target is T2, BPTF (Homo sapiens, UniProt Q12830).
T2 construct: bromodomain
Put plainly: SPR (Biacore T200, NiHC1500M chip). The assay is classed as binding.

In another assay the target is T3, CRBN (Homo sapiens, UniProt Q96SW2).
T3 construct: with BPTF
T3 sequence (Q96SW2 whole entry, other chains not shown): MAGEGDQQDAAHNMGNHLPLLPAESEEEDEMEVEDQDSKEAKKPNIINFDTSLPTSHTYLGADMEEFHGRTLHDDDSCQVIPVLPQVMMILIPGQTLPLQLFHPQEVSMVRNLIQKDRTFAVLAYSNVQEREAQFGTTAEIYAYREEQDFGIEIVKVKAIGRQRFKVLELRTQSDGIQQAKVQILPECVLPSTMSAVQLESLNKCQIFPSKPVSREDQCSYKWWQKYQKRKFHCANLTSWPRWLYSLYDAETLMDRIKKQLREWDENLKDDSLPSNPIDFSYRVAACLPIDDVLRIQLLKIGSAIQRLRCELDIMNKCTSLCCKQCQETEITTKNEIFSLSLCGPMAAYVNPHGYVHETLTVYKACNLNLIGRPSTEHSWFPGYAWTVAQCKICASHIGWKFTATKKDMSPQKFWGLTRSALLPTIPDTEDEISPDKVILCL
The experiment in a line: co-IP of BPTF with CRBN in 8d-treated Huh7 cells; pomalidomide rescue; N-methyl glutarimide control […] inactive. The assay is classed as cell-based.

The next assay addresses T4, CECR2 (Homo sapiens, UniProt Q9BXF3).
T4 construct: bromodomain
Put plainly: SPR positive control (Figure S7D). The assay is classed as binding.

T4 sequence (Q9BXF3 434-538 limits assumed): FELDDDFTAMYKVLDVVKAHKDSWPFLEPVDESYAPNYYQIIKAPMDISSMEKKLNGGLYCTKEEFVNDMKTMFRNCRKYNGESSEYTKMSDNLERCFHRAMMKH

`CS(=O)(=O)c1nc(NCCCn2cccn2)cc(-c2ccc(NCc3cn(CCOCCOCCOCCOCCOCCNc4cccc5c4C(=O)N(C4CCC(=O)NC4=O)C5=O)nn3)cc2)n1` (stereo not shown) [8d, 4-((17-(4-(((4-(6-((3-(1H-pyrazol-1-yl)propyl)amino)-2-(methylsulfonyl)pyrimidin-4-yl)phenyl)amino)methyl)-1H-1,2,3-triazol-1-yl)-3,6,9,12,15 pentaoxaheptadecyl)amino)-2-(2,6-dioxopiperidin-3-yl) isoindoline-1,3-dione]: the results for the dissociation constant (Kd) on BRD9 and at BPTF were 28.8 µM and 0.563 µM, respectively. Besides, at CRBN, the “co-IP of BPTF with CRBN in 8d-treated Huh7 cells; pomalidomide rescue; N-methyl” value is “through direct recruitment of CRBN, 8d facilitates the proteasome-dependent selective degradation of BPTF”.

As for `CN(C)CCCOc1ccc(-c2cc(NCCCn3cccn3)nc(S(C)(=O)=O)n2)cc1` [TP238], the “CECR2 bromodomain binding affinity” value on CECR2 is listed as “minimal affinity for the CECR2 bromodomain (Figure S7D), which is known to strongly bind to TP238 as a positive control”.
